Laboratory results taken from article PMC11079024, “Identification of a family of species-selective complex I inhibitors as potential anthelmintics” (Nature Communications, 2024).
Read-outs that look alike come from different tables or passages of the source.

Key:
[1] = system: ben-1 mutant (ECA882) C. elegans; test: microbe, parasite or virus in culture; details: Caenorhabditis elegans; for viability at 1 µM / viability at 2 µM / viability at 3.9 µM / viability at 15.6 µM / viability at 31.3 µM / viability at 62.5 µM / viability at 125 µM / viability at 250 µM / viability at 500 µM / viability at 1000 µM: read-out: C. elegans ben-1(e1880) development/viability
Procedure, shortened: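 L1 larvae (~2 worms/μL in M9) in liquid NGM with 2-fold concentrated E. coli HB101, compound at 1% DMSO, 6 days at 20 °C shaking 165 rpm. Well images scored as summed worm-associated pixels, normalized to DMSO controls; relative viability averaged over at least three biological replicates.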

[2] = molecular target: B. taurus (heart) complex I (Bos taurus, UniProt P03887+P17694+P42026); test: biochemical; assay type: biochemical; details: for IC50: B. taurus heart mitochondria, read-out: B. taurus Complex I IC50; for activity at 0.0001 µM / activity at 0.0005 µM / activity at 0.001 µM / activity at 0.0025 µM / activity at 0.005 µM / activity at 0.013 µM / activity at 0.025 µM / activity at 0.063 µM / activity at 0.125 µM / activity at 0.313 µM / activity at 0.625 µM / activity at 1.5 µM / activity at 3 µM / activity at 15 µM / activity at 37.5 µM / activity at 75 µM: read-out: B. taurus mitochondrial complex I activity; for Log IC50 B. taurus complex I: log10 of IC50 in µM, B. taurus mitochondria
Procedure, shortened: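 Complex I activity followed as DCIP reduction (600 nm, 30 s reads, 15 min) with 80 μM NADH and 60 μM decylubiquinone in 25 mM KPi pH 7.5 containing 2 μM antimycin A and 2 mM KCN. Freeze-thawed mouse or bovine heart mitochondria at 0.2 mg/mL; initial-rate percent of solvent control, single-point 100 μM or dose-response.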

[3] = system: L1 wild-type C. elegans; test: microbe, parasite or virus in culture; details: Caenorhabditis elegans, read-out: C. elegans KCN Survival Assay LC50, estimated from fitted dose-response curves; mean of at least two biological replicates
[4] = read-out: C. elegans (ben-1) Development & Viability Assay LC50
[5] = read-out: C. elegans ben-1 log10 LC50 (converted)

B. taurus (heart) complex I, sequence (P03887 whole entry): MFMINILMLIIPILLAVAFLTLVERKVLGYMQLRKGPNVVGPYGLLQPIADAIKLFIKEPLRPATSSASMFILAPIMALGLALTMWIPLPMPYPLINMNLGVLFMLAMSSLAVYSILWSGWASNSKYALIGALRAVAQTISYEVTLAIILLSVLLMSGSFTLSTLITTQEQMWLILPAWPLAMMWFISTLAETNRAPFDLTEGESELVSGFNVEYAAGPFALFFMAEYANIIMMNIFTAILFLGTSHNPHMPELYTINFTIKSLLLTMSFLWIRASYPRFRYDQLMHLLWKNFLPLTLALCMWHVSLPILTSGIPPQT
B. taurus (heart) complex I, sequence (P17694 34-463): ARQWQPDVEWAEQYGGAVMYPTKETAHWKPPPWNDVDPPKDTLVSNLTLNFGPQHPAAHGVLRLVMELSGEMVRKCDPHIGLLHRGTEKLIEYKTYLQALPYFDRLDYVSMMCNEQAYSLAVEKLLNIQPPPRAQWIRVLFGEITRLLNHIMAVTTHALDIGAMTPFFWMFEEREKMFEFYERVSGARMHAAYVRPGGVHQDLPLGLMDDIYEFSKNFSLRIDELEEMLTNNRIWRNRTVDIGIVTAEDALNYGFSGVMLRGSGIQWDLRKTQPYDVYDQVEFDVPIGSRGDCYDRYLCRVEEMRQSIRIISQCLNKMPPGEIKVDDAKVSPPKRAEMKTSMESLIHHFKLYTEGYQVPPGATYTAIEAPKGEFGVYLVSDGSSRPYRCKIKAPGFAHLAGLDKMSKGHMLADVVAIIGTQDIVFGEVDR
B. taurus (heart) complex I, sequence (P42026 38-216): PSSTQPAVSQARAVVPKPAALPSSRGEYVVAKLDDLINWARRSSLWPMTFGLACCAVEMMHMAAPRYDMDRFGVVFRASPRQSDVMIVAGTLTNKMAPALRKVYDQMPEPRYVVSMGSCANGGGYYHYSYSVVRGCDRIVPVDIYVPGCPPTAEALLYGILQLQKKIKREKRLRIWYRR

SMILES | LC50 [1, 4] [µM] | viability at 1 µM [1] [%] | viability at 2 µM [1] [%] | viability at 3.9 µM [1] [%] | viability at 15.6 µM [1] [%] | viability at 31.3 µM [1] [%] | viability at 62.5 µM [1] [%] | viability at 125 µM [1] [%] | viability at 250 µM [1] [%] | viability at 500 µM [1] [%] | viability at 1000 µM [1] [%] | LC50 [1, 5] [µM] | activity at 0.0001 µM [2] [%] | activity at 0.0005 µM [2] [%] | activity at 0.001 µM [2] [%] | activity at 0.0025 µM [2] [%] | activity at 0.005 µM [2] [%] | activity at 0.013 µM [2] [%] | Log IC50 B. taurus complex I [2] [µM] | LC50 [3] [µM] | further results
Cc1ccc(C(C)C)c(OCC(O)Cn2cnc3ccccc32)c1 (stereo not shown) [Compound 6093301] | 366 | 94.1 | 98.7 | 95.9 | 96.4 | 97.2 | 83.6 | 88.1 | 88.4 | 12.5 | 4.7 | 366 | 94.9 | 95.3 | 95.9 | 100 | 99.5 | 100 | 0.32 | 19.8 | IC50 ([2]; estimated from fitted dose-response curves): 2.07 µM; activity at 0.025 µM [2]: 96.1%; activity at 0.063 µM [2]: 94%; activity at 0.125 µM [2]: 90%; activity at 0.313 µM [2]: 81.5%; activity at 0.625 µM [2]: 75.8%; activity at 1.5 µM [2]: 60.4%; activity at 3 µM [2]: 45.2%; activity at 15 µM [2]: 18%; activity at 37.5 µM [2]: 13.4%; activity at 75 µM [2]: 11.2%
Cc1nc2ccccc2n1CCOc1ccccc1Cl [Compound 5561642] | 636 | 97 | 98.6 | 100 | 99.1 | 100 | 91.8 | 98.9 | 96.4 | 35.3 | 46.7 | 635 | 88.4 | 88.9 | 90.3 | 85.7 | 90.4 | 86.9 | 0.91 | 11.7 | IC50 [2]: 8.05 µM; activity at 0.025 µM [2]: 83.6%; activity at 0.063 µM [2]: 88.9%; activity at 0.125 µM [2]: 88.4%; activity at 0.313 µM [2]: 83.2%; activity at 0.625 µM [2]: 86.2%; activity at 1.5 µM [2]: 75.9%; activity at 3 µM [2]: 63.2%; activity at 15 µM [2]: 29.8%; activity at 37.5 µM [2]: 11.9%; activity at 75 µM [2]: 6%
Cc1ccc(Cn2c(C(C)C)nc3ccccc32)cc1 [Compound 6586153] | 419 |  |  |  |  |  |  |  |  |  |  | 419 |  |  |  |  |  |  | 1.76 | 24.9 | IC50 [2]: 57.6 µM
